Test results: patent publication US20260374754A1, “N-((ISOQUINOLIN-6-YL)METHYL)-1H-PYRAZOLE-4-CARBOXAMIDE DERIVATIVES AS PLASMA KALLIKREIN INHIBITORS FOR THE TREATMENT OF HEREDITARY ANGIODEMA” (Takeda Pharmaceutical Company Limited, priority 2022, published 2026)

Molecular target: human activated kallikrein enzyme (Homo sapiens, UniProt P03952)
Experiment: Inhibition of human activated plasma kallikrein, fluorogenic PFR-AMC substrate, 500 pM enzyme format
Type: biochemical
Details: 500 pM activated kallikrein; 300 μM PFR-AMC; 30 min preincubation; 10 min room temperature; pH 7.5; read-out: Primary Dose Response Assay: Average EC50
How it was run: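 Using fluorogenic PFR-AMC at 300 μM, cleavage by 500 pM human activated kallikrein ran 10 min at room temperature, read at 460 nm emission (380 nm excitation). Enzyme and compounds were first preincubated 30 min in 20 mM Tris pH 7.5, 150 mM NaCl, 1 mM EDTA, 0.1% PEG-400, 0.1% Triton X-100.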

Chain of human activated kallikrein enzyme (P03952 391-638 limits assumed): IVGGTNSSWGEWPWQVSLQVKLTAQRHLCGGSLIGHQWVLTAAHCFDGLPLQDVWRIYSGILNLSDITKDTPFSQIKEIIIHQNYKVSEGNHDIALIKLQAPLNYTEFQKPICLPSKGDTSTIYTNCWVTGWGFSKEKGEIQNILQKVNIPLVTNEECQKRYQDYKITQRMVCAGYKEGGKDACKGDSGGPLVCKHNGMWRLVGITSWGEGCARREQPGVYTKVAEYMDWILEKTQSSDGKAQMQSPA
Chain of human activated kallikrein enzyme (P03952 20-390 partner limits assumed): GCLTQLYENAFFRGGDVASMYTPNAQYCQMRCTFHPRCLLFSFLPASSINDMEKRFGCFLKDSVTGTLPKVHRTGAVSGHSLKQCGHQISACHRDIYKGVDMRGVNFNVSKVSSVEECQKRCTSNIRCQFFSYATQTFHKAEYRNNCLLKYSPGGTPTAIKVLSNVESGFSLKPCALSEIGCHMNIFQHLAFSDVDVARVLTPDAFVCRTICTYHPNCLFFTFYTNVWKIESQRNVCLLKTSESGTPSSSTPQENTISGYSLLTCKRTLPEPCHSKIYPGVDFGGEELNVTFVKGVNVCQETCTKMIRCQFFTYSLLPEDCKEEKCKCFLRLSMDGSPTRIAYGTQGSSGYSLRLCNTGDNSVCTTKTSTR

Row | EC50 [nM] | Compound
1 | < 1 | Cc1cc2c(N)nccc2c(C)c1CNC(=O)c1cnn(Cc2ccc(Cc3cccn4ccnc34)cc2)c1 [Example 167, N-((1-amino-5,7-dimethylisoquinolin-6-yl)methyl)-1-(4-(imidazo[1,2-a]pyridin-8-ylmethyl)benzyl)-1H-pyrazole-4-carboxamide]
2 | 1 to 10 | Cc1cc2c(N)nccc2c(C)c1CNC(=O)c1cnn(Cc2ccc(Cc3ncccn3)cc2)c1 [Example 168, N-((1-amino-5,7-dimethylisoquinolin-6-yl)methyl)-1-(4-(pyrimidin-2-ylmethyl)benzyl)-1H-pyrazole-4-carboxamide]
3 | 10 to 100 | CCc1cc2c(N)nccc2c(C)c1CNC(=O)c1cnn(Cc2ccccc2)c1 [Example 173, N-((1-amino-7-ethyl-5-methylisoquinolin-6-yl)methyl)-1-benzyl-1H-pyrazole-4-carboxamide]
4 | 10 to 100 | Cc1c(CNC(=O)c2cnn(Cc3ccccc3)c2)c(C2CC2)cc2c(N)nccc12 [Example 174, N-((1-amino-7-cyclopropyl-5-methylisoquinolin-6-yl)methyl)-1-benzyl-1H-pyrazole-4-carboxamide]
5 | 10 to 100 | Cc1c(CNC(=O)c2cnn(Cc3ccccc3)c2)c(C2(C)CC2)cc2c(N)nccc12 [Example 175, N-((1-amino-5-methy1-7-(1-methylcyclopropyl)isoquinolin-6-y1)methyl)-1-benzyl-1H-pyrazole-4-carboxamide]
6 | 1 to 10 | Cc1cc2c(N)nccc2c(C)c1CNC(=O)c1cnn(Cc2cn3cc(C4CC4(C)C)ccc3n2)c1 (stereo not drawn) [Example 176, N-((1-amino-5,7-dimethylisoquinolin-6-yl)methyl)-1-((6-(2,2-dimethylcyclopropyl)imidazo[1,2-a]pyridin-2-yl)methyl)-1H-pyrazole-4-carboxamide]
7 | < 1 | C/C=C\c1ccc2nc(Cn3ccc(C(=O)NCc4c(C)cc5c(N)nccc5c4C)n3)cn2c1 [Example 177, (Z)-N-((1-amino-5,7-dimethylisoquinolin-6-yl)methyl)-1-((6-(prop-1-en-1-yl)imidazo[1,2-a]pyridin-2-yl)methyl)-1H-pyrazole-3-carboxamide]
8 | > 1000 | Cc1cc2c(N)nccc2c(C)c1CNC(=O)c1cnn(C(CNC(=O)OC(C)(C)C)c2ccccc2)c1 (stereo not drawn) [Example 181, tert-butyl (2-(4-(((1-amino-5,7-dimethylisoquinolin-6-yl)methyl)carbamoyl)-1H-pyrazol-1-yl)-2-phenylethyl)carbamate]
9 | < 1 | Cc1cc2c(N)nccc2c(C)c1CNC(=O)c1cn(Cc2ccc(CC(=O)N3CC4CC4C3)cc2)nc1C(F)(F)F (stereo not drawn) [Example 182, 1-(4-(2-(3-azabicyclo[3.1.0]hexan-3-y1)-2-oxoethyl)benzyl)-N-((1-amino-5,7-dimethylisoquinolin-6-yl)methyl)-3-(trifluoromethyl)-1H-pyrazole-4-carboxamide]
10 | < 1 | Cc1cc2c(N)nccc2c(C)c1CNC(=O)c1ccnc(Cc2ccc(Cn3cccn3)cc2)c1 [Example 183]
11 | < 1 | Cc1cc2c(N)nccc2c(C)c1CNC(=O)c1cn(Cc2ccc(Cn3cccn3)cc2)nc1C(F)(F)F [Example 185, 1-(4-((1H-pyrazol-1-yl)methyl)benzyl)-N-((1-amino-5,7-dimethylisoquinolin-6-y1)methyl)-3-(trifluoromethyl)-1H-pyrazole-4-carboxamide]
12 | 10 to 100 | COCc1c(C(=O)NCc2c(C)cc3c(N)nccc3c2C)cnn1Cc1ccc(Cn2cccn2)cc1 [Example 188, 1-(4-((1H-pyrazol-1-yl)methyl)benzyl)-N-((1-amino-5,7-dimethylisoquinolin-6-yl)methyl)-5-(methoxymethyl)-1H-pyrazole-4-carboxamide]
13 | 100 to 1000 | Cc1cc2c(N)nccc2c(C)c1CNC(=O)c1cnn(Cc2ccc(N3CCCC3)nc2)c1C(F)(F)F [Example 193, N-((1-amino-5,7-dimethylisoquinolin-6-yl)methyl)-1-((6-(pyrrolidin-1-y1)pyridin-3-yl)methyl)-5-(trifluoromethyl)-1H-pyrazole-4-carboxamide]
14 | 1 to 10 | Cc1cc2c(N)nccc2c(C)c1CNC(=O)c1cnn(Cc2cnc(-c3ccccc3)nc2)c1 [Example 195, N-((1-amino-5,7-dimethylisoquinolin-6-yl)methyl)-1-((2-phenylpyrimidin-5-yl)methyl)-1H-pyrazole-4-carboxamide]

Continued, molecule first:

Row | Compound | EC50 [nM]
15 | Cc1cc(Cn2cc(C(=O)NCc3c(C)cc4c(N)nccc4c3C)cn2)cc(C)c1Cc1ccccn1 [Example 169, N-((1-amino-5,7-dimethylisoquinolin-6-yl)methyl)-1-(3,5-dimethyl-4-(pyridin-2-ylmethyl)benzyl)-1H-pyrazole-4-carboxamide] | < 1
16 | Cc1cc2c(N)nccc2c(C)c1CNC(=O)c1cnn(Cc2cn3cc(C4CC4)cc(Cc4nnco4)c3n2)c1 [Example 172, 1-((8-((1,3,4-oxadiazol-2-yl)methyl)-6-cyclopropylimidazo[1,2-a]pyridin-2-y1)methyl)-N-((1-amino-5,7-dimethylisoquinolin-6-y1)methyl)-1H-pyrazole-4-carboxamide] | < 1
17 | Cc1cc2c(N)nccc2c(C)c1CNC(=O)c1cnn(Cc2cn3cc(C4CC4C)ccc3n2)c1 (stereo not drawn) [Example 178, N-((1-amino-5,7-dimethylisoquinolin-6-yl)methyl)-1-((6-(2-methylcyclopropyl)imidazo[1,2-a]pyridin-2-yl)methyl)-1H-pyrazole-4-carboxamide] | < 1
18 | CC(C)=Cc1ccc2nc(Cn3cc(C(=O)NCc4c(C)cc5c(N)nccc5c4C)cn3)cn2c1 [Example 179, N-((1-amino-5,7-dimethylisoquinolin-6-yl)methyl)-1-((6-(2-methylprop-1-en-1-yl)imidazo[1,2-a]pyridin-2-y1)methyl)-1H-pyrazole-4-carboxamide] | 1 to 10
19 | Cc1cc2c(N)nccc2c(C)c1CNC(=O)c1cnn(C(CN)c2ccccc2)c1 (stereo not drawn) [Example 180, 1-(2-amino-1-phenylethyl)-N-((1-amino-5,7-dimethylisoquinolin-6-yl)methyl)-1H-pyrazole-4-carboxamide] | 100 to 1000
20 | Cc1cnn(Cc2ccc(Cn3cc(C(=O)NCc4c(C)cc5c(N)nccc5c4C)c(C(F)(F)F)n3)cc2)c1 [Example 184, N-((1-amino-5,7-dimethylisoquinolin-6-yl)methyl)-1-(4-((4-methyl-1H-pyrazol-1-yl)methyl)benzyl)-3-(trifluoromethyl)-1H-pyrazole-4-carboxamide] | < 1
21 | COCc1nn(Cc2ccc(Cn3cccn3)cc2)cc1C(=O)NCc1c(C)cc2c(N)nccc2c1C [Example 187, 1-(4-((1H-pyrazol-1-yl)methyl)benzyl)-N-((1-amino-5,7-dimethylisoquinolin-6-yl)methyl)-3-(methoxymethyl)-1H-pyrazole-4-carboxamide] | < 1
22 | Cc1cc2c(N)nccc2c(C)c1CNC(=O)c1ccnc(C(=O)c2cn3cc(C4CC4)ccc3n2)c1 [Example 189, N-((1-amino-5,7-dimethylisoquinolin-6-y1)methyl)-2-(6-cyclopropylimidazo[1,2-a]pyridine-2-carbonyl)isonicotinamide] | 100 to 1000
23 | Cc1cc2c(N)nccc2c(C)c1CNC(=O)c1nnc(Cc2cn3cc(C4CC4)ccc3n2)o1 [Example 190, N-((1-amino-5,7-dimethylisoquinolin-6-yl)methyl)-5-((6-cyclopropylimidazo[1,2-a]pyridin-2-yl)methyl)-1,3,4-oxadiazole-2-carboxamide] | < 1
24 | Cc1c(CNC(=O)c2cnn(Cc3cn4cc(C5CC5)ccc4n3)c2)c(C)c2ccnc(N)c2c1C [Example 191, N-((1-amino-5,7,8-trimethylisoquinolin-6-yl)methyl)-1-((6-cyclopropylimidazo[1,2-a]pyridin-2-yl)methy1)-1H-pyrazole-4-carboxamide] | 10 to 100
25 | Cc1cc2c(N)nccc2c(C)c1CNC(=O)c1cnn(Cc2ccc(Cc3cccn(CC(F)(F)F)c3=O)cc2)c1 [Example 196, N-((1-amino-5,7-dimethylisoquinolin-6-yl)methyl)-1-(4-((2-oxo-1-(2,2,2-trifluoroethyl)-1,2-dihydropyridin-3-yl)methyl)benzy1)-1H-pyrazole-4-carboxamide] | 1 to 10
26 | Cc1cc2c(N)nccc2c(C)c1CNC(=O)c1ccnc(Cc2ccc3ncc(Cl)cc3c2)c1 [Example 197, N-((1-amino-5,7-dimethylisoquinolin-6-yl)methyl)-2-((3-chloroquinolin-6-yl)methyl)isonicotinamide] | < 1
27 | Cc1cc2c(N)nccc2c(C)c1CNC(=O)c1cnc(Cc2cn3cc(C4CC4)ccc3n2)s1 [Example 198, N-((1-amino-5,7-dimethylisoquinolin-6-y1)methyl)-2-((6-cyclopropylimidazo[1,2-a]pyridin-2-yl)methyl)thiazole-5-carboxamide] | 1 to 10
28 | Cc1cc2c(N)nccc2c(C)c1CNC(=O)c1cn(Cc2cn3cc(C4CC4)ccc3n2)nc1C(F)F [Example 199, N-((1-amino-5,7-dimethylisoquinolin-6-y1)methyl)-1-((6-cyclopropylimidazo[1,2-a]pyridin-2-y1)methyl)-3-(difluoromethyl)-1H-pyrazole-4-carboxamide] | < 1
29 | Cc1cc2c(N)nccc2c(C)c1CNC(=O)c1cn(C(C)c2ccc3ncc(Cl)cc3c2)nn1 (stereo not drawn) [Example 200, N-((1-amino-5,7-dimethylisoquinolin-6-yl)methyl)-1-(1-(3-chloroquinolin-6-yl)ethyl)-1H-1,2,3-triazole-4-carboxamide] | 1 to 10

Same assay, conditions: Primary Dose Response Assay: Average EC50, 500 pM activated kallikrein; 300 μM PFR-AMC; 30 min preincubation; 10 min room temperature; pH 7.5

Row | EC50 [nM] | Compound
30 | > 1000 | Cc1c(CNC(=O)c2cnn(Cc3ccccc3)c2)c(C)c2ccnc(N)c2c1C [Example 170, N-((1-amino-5,7,8-trimethylisoquinolin-6-yl)methyl)-1-benzyl-1H-pyrazole-4-carboxamide]
